Assay results from PubChem BioAssay (NCI).
“And” between values parts separate entries of the source, which are not always exact repeats. Equal values may be shown once.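 96-well plates; 48 h exposure; 5 concentrations. Endpoints by linear interpolation between flanking doses. Not reached: highest tested concentration assigned. GI50 is the concentration that inhibits growth by half. Definition used: TGI = concentration required for complete inhibition of growth.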

Key:
Test in all cases: DTP human tumour cell line panel, 48 h
MALME-3M melanoma = tested on: MALME-3M melanoma
BT-549 breast = tested on: BT-549 breast
MDA-MB-435 = tested on: MDA-MB-435
SK-OV-3 ovarian = tested on: SK-OV-3 ovarian
MOLT-4 leukemia = tested on: MOLT-4 leukemia
CCRF-CEM leukemia = tested on: CCRF-CEM leukemia
OVCAR-8 ovarian = tested on: OVCAR-8 ovarian
MDA-N = tested on: MDA-N
SW-620 colon = tested on: SW-620 colon
SK-MEL-2 melanoma = tested on: SK-MEL-2 melanoma

SMILES	TGI (MALME-3M melanoma)	TGI (BT-549 breast)	TGI (MDA-MB-435)	TGI (SK-OV-3 ovarian)	TGI (MOLT-4 leukemia)	TGI (CCRF-CEM leukemia)	TGI (OVCAR-8 ovarian)	TGI (MDA-N)	TGI (SW-620 colon)	TGI (SK-MEL-2 melanoma)	GI50 (MOLT-4 leukemia)
CNc1ncnc2c1cnn2COCC(O)CO (centres undefined)	> 100 µM	> 100 µM	> 100 µM	> 100 µM	> 100 µM	> 100 µM	> 100 µM	> 100 µM	> 100 µM	> 100 µM	
C[C@@H]1S[C@H](c2ccccc2F)N2Cc3ccccc3N=C12	54.2 µM	> 100 µM	88.5 µM	85.1 µM	46.7 µM	> 100 µM	> 100 µM	48.4 µM	> 100 µM	34.7 µM	
C/C1=C\CC[C@@]2(C)O[C@@H]2C[C@@H](C2(C)CO2)CC/C(C)=C/CC1 (some centres undefined)	32.5 µM	42.8 µM	46.4 µM	> 100 µM	> 100 µM	> 100 µM	39.6 µM	69.7 µM	> 100 µM	71.8 µM	
O=C(Nc1ccccc1F)c1cc2ccc(O)cc2oc1=Nc1ccccc1F	3.44 µM	6.95 µM	4.24 µM	42.1 µM	6.11 µM	3.79 µM	3.36 µM	5.27 µM	8.98 µM	4.05 µM	
COc1ccc(S(=O)(=O)N2C(=O)CCC2C(=O)NN)cc1 (centres undefined)	> 100 µM	> 100 µM	> 100 µM	> 100 µM	> 100 µM	> 100 µM	> 100 µM	> 100 µM	> 100 µM	> 100 µM	
COc1cc(-c2cc(=O)c3cc4c(=O)cc(-c5cc(OC)c(OC)c(OC)c5)oc4cc3o2)cc(OC)c1OC	> 100 µM	86.2 µM	> 100 µM	41.4 µM	> 100 µM	> 100 µM	> 100 µM	> 100 µM	> 100 µM	41.3 µM	
N#CCc1nc(-c2ccccc2)n[nH]1	> 100 µM	> 100 µM	> 100 µM	> 100 µM	> 100 µM	> 100 µM	> 100 µM	> 100 µM	> 100 µM	> 100 µM	
NCCCN1CCN(CCCNc2ccc3nnn4c5ccccc5c(=O)c2c34)CC1	39.1 µM	22.6 µM	60.1 µM	> 100 µM	> 100 µM	35.7 µM	> 100 µM	31 µM	> 100 µM	36.1 µM	
C[C@]12CC[C@@H]3c4ccc(O)cc4CC[C@H]3[C@@H]1C/C(=C\c1ccncc1)[C@@H]2O	30.9 µM	14.2 µM	> 100 µM	> 100 µM	40.8 µM	> 100 µM	31.7 µM	> 100 µM	> 100 µM	37.4 µM	
CCCCn1cnc2c(c(CC#N)nn2-c2ccccc2)c1=N	> 100 µM	> 100 µM	> 100 µM	> 100 µM	> 100 µM	> 100 µM	> 100 µM	> 100 µM	> 100 µM	62.1 µM	
CC1(C)C2CC(=O)C1(C)C(O)C2Br (centres undefined)	> 100 µM	> 100 µM	> 100 µM	> 100 µM	> 100 µM	> 100 µM	> 100 µM	> 100 µM	> 100 µM	> 100 µM	
COc1nc2ncc([C@@H](OC(C)=O)[C@@H](COC(C)=O)OC(C)=O)nc2c(=O)[nH]1	> 100 µM	> 100 µM	> 100 µM	> 100 µM	> 100 µM	> 100 µM	> 100 µM	> 100 µM	> 100 µM	> 100 µM	> 100 µM and 49.9 µM
S=c1[nH]c2ccc(Br)cc2c(=S)s1	> 100 µM	> 100 µM	67.2 µM	> 100 µM	> 100 µM	> 100 µM	> 100 µM	54 µM	> 100 µM	61.8 µM	
Cc1cc(-c2nc3ccccc3s2)ccc1NC(=O)[C@@H](N)CCCCN	34.8 µM	24.1 µM	10 µM	27.2 µM	17.1 µM	22.5 µM	17.1 µM	9.75 µM	25.3 µM	30 µM	
CCc1c[n+]([O-])c(C)cc1[N+](=O)[O-]	97.3 µM	> 100 µM	> 100 µM	> 100 µM	> 100 µM	> 100 µM	> 100 µM	> 100 µM	> 100 µM	> 100 µM	
CN(Cc1ccccc1)c1cc(=O)n(C)c(=O)[nH]1	> 100 µM	> 100 µM	> 100 µM	> 100 µM	> 100 µM	> 100 µM	> 100 µM	> 100 µM	> 100 µM	> 100 µM	
Cc1ccc(OCCn2cc(Nc3ccccc3)c(=O)n(CCOc3ccc(C)cc3)c2=O)cc1	> 100 µM	> 100 µM	> 100 µM		> 100 µM	> 100 µM	> 100 µM	> 100 µM	> 100 µM	> 100 µM	
O=c1[nH]cnc2c1ncn2[C@@H]1C[C@@H]1CO	> 100 µM	> 100 µM	> 100 µM		> 100 µM	> 100 µM	> 100 µM	> 100 µM	> 100 µM	> 100 µM	
